Results reported in US9889179B2, “FGF-18 compound dosing regimen” (MERCK PATENT GMBH, priority 2014, dated 2018).
Like-named read-outs stand apart in the source and are kept apart here.

Key:
[1] = system: medial meniscal tear in the right knee joint; type: in vivo, Male Lewis rats; details: for swelling scores versus vehicle controls: days 24-29, 31, 36-43
Description: Male Lewis rats underwent surgery to induce a medial meniscal tear in the right knee joint. Animals were dosed i.a. with FGF-18 (10 μg/joint) on days 21, 28, and 35 and dosed orally with diclofenac (either 1 mg/kg or 3 mg/kg) or vehicle on days 21-23, 28-30, and 35-37, then terminated on day 42 or day 63. Serum was collected and evaluated for alpha 2 macroglobulin (α2MG) levels on days −3, 21, 42, and 63. α2MG is an inflammation serum biomarker. The link between α2MG and inflammation has already been shown (Kuribayashi et al., 2013).

OA symptoms = details: cited from earlier work
RA = details: human, in vivo; cited from earlier work

Molecule	knee caliper measurements ([1]; diclofenac 1 mg/kg oral with FGF-18 i.a., any other time point)	knee caliper measurements ([1]; diclofenac 1 mg/kg oral with FGF-18 i.a., day 42)	swelling scores versus vehicle controls ([1]; diclofenac 1 mg/kg oral with FGF-18 i.a.)	knee caliper measurements ([1]; diclofenac 3 mg/kg oral with FGF-18 i.a., any other time point)	knee caliper measurements ([1]; diclofenac 3 mg/kg oral with FGF-18 i.a., day 42)	swelling scores versus vehicle controls ([1]; diclofenac 3 mg/kg oral with FGF-18 i.a.)	serum α2MG levels, all groups ([1]; diclofenac 1 and 3 mg/kg with FGF-18, day 63)	time for which effects on knee swelling were evident after the final dose of diclofenac ([1]; diclofenac 1 or 3 mg/kg with FGF-18)	pain versus placebo (OA symptoms; anakinra 150 mg)	improvements in OA symptoms compared with placebo (OA symptoms; anakinra therapy)	joint damage in RA patients (RA)	pain in RA patients (RA)
O=C(O)Cc1ccccc1Nc1c(Cl)cccc1Cl [diclofenac, 2-(2,6-dichloranilino) phenylacetic acid]	not significantly affected	significantly reduced	significantly reduced	not significantly affected	significantly reduced	significantly reduced	similar	approximately one week	–	–	–	–
anakinra: recombinant, nonglycosylated form of human interleukin-1 receptor antagonist (IL-1Ra), SEQ ID NO: 3	–	–	–	–	–	–	–	–	tendency toward pain reduction	not significantly associated with improvements	reduction in frequency and severity of joint damage	pain reduction
